Tests used:
Type in all cases: biochemical, Hymenopellis radicata
[1] = system: T1, ORG (O. radicata α-galactosidase); assay: reducing sugar release (DNS method), Michaelis-Menten plot; settings: free enzyme, 50 °C
T1 construct: native, purified from commercial dry fruiting bodies; 74 kDa by gel filtration, SDS-PAGE bands 50 and 24 kDa
Description: reducing sugar release (DNS method), Michaelis-Menten plot on ORG (O. radicata α-galactosidase)

[2] = target: T1, ORG (O. radicata α-galactosidase); assay: pNPG hydrolysis, absorbance at […] nm, Dixon plot; settings: mixed-type inhibition; pNPG 1.5-3 mM as substrate, NaAc-HAc pH 4.6, 40 °C
[3] = system: T1, ORG (O. radicata α-galactosidase); assay: p-nitrophenol release, absorbance at […] nm, Michaelis-Menten plot; settings: free enzyme; pNPG 0.5-4 mM, NaAc-HAc pH 4.6, 40 °C

Compound: OC[C@H]1O[C@H](OC[C@H]2O[C@H](OC[C@H]3O[C@H](O[C@]4(CO)O[C@H](CO)[C@@H](O)[C@@H]4O)[C@H](O)[C@@H](O)[C@@H]3O)[C@H](O)[C@@H](O)[C@H]2O)[C@H](O)[C@@H](O)[C@H]1O [stachyose]
- Km ([1]; stachyose 2-40 mM, read-out: Stachyose / Km): 19 mM

Compound: OC[C@H]1O[C@H](OC[C@H]2O[C@H](O[C@]3(CO)O[C@H](CO)[C@@H](O)[C@@H]3O)[C@H](O)[C@@H](O)[C@@H]2O)[C@H](O)[C@@H](O)[C@H]1O [raffinose]
- Km ([1]; raffinose 2-40 mM, read-out: Raffinose / Km): 16.5 mM

Compound: OC[C@H]1O[C@H](OC[C@H]2OC(O)[C@H](O)[C@@H](O)[C@@H]2O)[C@H](O)[C@@H](O)[C@H]1O (some centres unmarked) [melibiose]
- Ki [2]: 1.86 mM

Compound: O=[N+]([O-])c1ccc(O[C@H]2O[C@H](CO)[C@H](O)[C@H](O)[C@H]2O)cc1 [4-nitrophenyl-α-D-galactopyranoside]
- Km [3]: 0.58 mM

Compound: OC[C@H]1OC(O)[C@H](O)[C@@H](O)[C@H]1O (some centres unmarked) [galactose]
- Ki [2]: 5.94 mM
